What was measured:
prolyl endopeptidase = prolyl endopeptidase (Elizabethkingia meningoseptica, UniProt P27028); type: biochemical; details: amount per test tube for 50% inhibition; pH 7.0, 35° C., 10 minutes
Experimental: Measurement of anti-prolyl endopeptidase activity
The method of Yoshimoto and Tsuru [T. Yoshimoto and D. Tsuru, Agric. […] A mixture of 0.0025M Z-glycyl-proline-β-naphthylamide (0.25 ml), 0.1M phosphate buffer (pH, 7.0; 0.99 ml) and a solution of a particular anti-propyl endopeptidase compound (0.01 ml) was incubated in a test tube at 37° C. for 3 minutes. Thereafter, 0.1 ml of a solution of prolyl endopeptidase (0.2 U/ml) was added and the mixture was incubated at 35° C. for 10 minutes. After the reaction, 2.0 ml of Triton X-100 in 1M acetate buffer (pH, 4.0) was added to the reaction mixture so that the final concentration of the surfactant was 10%. The mixture was left at room temperature for 15 minutes and the absorbance (a) at 410 nm was measured.
A sample of a blind test was prepared by using the buffer instead of the anti-prolyl endopeptidase compound and its absorbance (b) was also measured. The percent inhibition of prolyl endopeptidase was calculated by the formula: […]

[1] = Acute toxicity test in mice; details: mouse, in vivo, ip; intraperitoneal, in DMSO, five mice per group
Experimental: Acute toxicity test in mice
Test samples were prepared by dissolving the respective compounds in DMSO, and a portion (0.1 ml) of the so conditioned test sample was administered intraperitoneally to each of the mice used. Each of the treated groups consisted of five mice.

[2] = system: experimental amnesia caused in rats by scopolamine; experiment: Preventive effect against experimental amnesia caused in rats by scopolamine (passive avoidance learning, intraperitoneal administration); type: in vivo, Wister male rats; details: for No. of avoidances during learning / Initial avoidance time: before scopolamine (3 mg/kg i.p.); for Initial avoidance time: learning; for Avoidance time After 24 hrs / No. of amnesic rats/No. of rats tested / Percentage amnesia: scopolamine 3 mg/kg i.p. after learning, 24 hrs
Experimental: Measurement of preventive effect against experimental amnesia caused in rats by scopolamine (Intraperitoneal administration)
Several of the anti-prolyl endopeptidase compounds according to the present invention were checked for their ability to prevent the inhibition of long-term memory fixation by scopolamine. […] One hour after the administration, electric shocks were applied to the rats so that they would acquire passive avoidance learning. Immediately thereafter, scopolamine was administered intraperitoneally to each rat in an amount of 3 mg per kg of body weight.
The results of the test were assessed 24 hours after the administration of scopolamine. The number of amnesic rats and of sound rats was counted for each of the control group (rats to which the test compounds were not administered but to which only scopolamine and physiological saline were administered intraperitoneally) and the treated group (rats to which both the test compound and scopolamine were administered).

prolyl endopeptidase, sequence (P27028 21-705): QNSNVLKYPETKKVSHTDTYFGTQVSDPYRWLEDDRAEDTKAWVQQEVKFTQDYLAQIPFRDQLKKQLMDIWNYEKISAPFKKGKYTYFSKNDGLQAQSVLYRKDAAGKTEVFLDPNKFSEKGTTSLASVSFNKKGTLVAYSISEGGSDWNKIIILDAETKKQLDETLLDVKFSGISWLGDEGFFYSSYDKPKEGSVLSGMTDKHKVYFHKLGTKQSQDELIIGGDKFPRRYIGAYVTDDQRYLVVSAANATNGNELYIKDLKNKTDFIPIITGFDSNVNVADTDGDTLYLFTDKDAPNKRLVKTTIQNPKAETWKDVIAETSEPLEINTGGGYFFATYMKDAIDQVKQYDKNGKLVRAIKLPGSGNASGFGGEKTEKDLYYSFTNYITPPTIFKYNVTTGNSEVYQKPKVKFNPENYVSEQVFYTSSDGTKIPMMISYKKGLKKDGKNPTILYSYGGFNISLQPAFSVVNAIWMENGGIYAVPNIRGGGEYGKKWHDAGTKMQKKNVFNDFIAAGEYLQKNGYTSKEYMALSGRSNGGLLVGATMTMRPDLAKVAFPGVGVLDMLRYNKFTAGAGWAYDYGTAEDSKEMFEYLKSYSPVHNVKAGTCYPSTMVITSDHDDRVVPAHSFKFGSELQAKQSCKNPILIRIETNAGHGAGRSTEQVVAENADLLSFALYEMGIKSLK

O=C([C@@H]1CCCN1C(=O)CCCOc1ccccc1OCc1ccccc1)N1CCCC1 [compound 30]
IC50 (prolyl endopeptidase): 0.005 μg/test tube

O=C([C@@H]1CCCN1C(=O)CCOc1ccccc1/C=C/c1ccccc1)N1CCCC1 [compound 39]
IC50 (prolyl endopeptidase): 0.003 μg/test tube

O=C([C@@H]1CCCN1C(=O)CCCOc1ccccc1O)N1CCCC1 [compound 22]
IC50 (prolyl endopeptidase): 0.008 μg/test tube

O=C([C@@H]1CCCN1C(=O)CCCCOc1ccc(Oc2ccccc2)cc1)N1CCCC1 [compound 29]
IC50 (prolyl endopeptidase): 0.009 μg/test tube

CCCCCCCCCc1ccc(OCCCC(=O)N2CCC[C@H]2C(=O)N2CCCC2)cc1 [compound 25]
IC50 (prolyl endopeptidase): 0.008 μg/test tube

O=C([C@@H]1CCCN1C(=O)CCCOc1ccccc1Cc1ccccc1)N1CCCC1 [compound 34]
IC50 (prolyl endopeptidase): 0.001 μg/test tube

O=C([C@@H]1CCCN1C(=O)CCCCOc1ccccc1/C=C/c1ccccc1)N1CCCC1 [compound 40]
IC50 (prolyl endopeptidase): 0.002 μg/test tube

C=CCOc1ccccc1CCCC(=O)N1CCC[C@H]1C(=O)N1CCCC1 [compound 27]
LD50 [1]: 390 mg/kg
IC50 (prolyl endopeptidase): 0.01 μg/test tube

CC(C)C[C@H](NC(=O)CCCOc1ccccc1/C=C/c1ccccc1)C(=O)N1CCCC1 [compound 9]
IC50 (prolyl endopeptidase): 0.03 μg/test tube

O=C([C@@H]1CCCN1C(=O)COc1ccc(Cl)cc1)N1CCCC1 [compound 20]
IC50 (prolyl endopeptidase): 0.20 μg/test tube

O=C([C@@H]1CCCN1C(=O)CCCOc1ccccc1CCc1ccccc1)N1CCCC1 [compound 37]
LD50 [1]: 350 mg/kg
IC50 (prolyl endopeptidase): 0.002 μg/test tube

CCCC[C@H](NC(=O)CCCc1ccccc1)C(=O)N1CCCC1 [compound 5]
IC50 (prolyl endopeptidase): 0.15 μg/test tube

O=C([C@@H]1CCCN1C(=O)CCCc1ccccc1)N1CCCC1 [Compound No. 18, N-[N-(γ-phenyl)butyryl-L-prolyl]pyrrolidine]
No. of avoidances during learning ([2]; 5 mg/kg i.p.): 1.8
Initial avoidance time ([2]; 5 mg/kg i.p.): 2.8 s
Avoidance time After 24 hrs ([2]; 5 mg/kg i.p.): 300.0 s
No. of amnesic rats/No. of rats tested ([2]; 5 mg/kg i.p.): 0/10
Percentage amnesia ([2]; 5 mg/kg i.p.): 0

CC(C)C[C@H](NC(=O)CCCc1ccccc1)C(=O)N1CCCC1 [Compound No. 2]
No. of avoidances during learning ([2]; 25 mg/kg i.p.): 2.2
Initial avoidance time ([2]; 25 mg/kg i.p.): 2.7 s
Avoidance time After 24 hrs ([2]; 25 mg/kg i.p.): 264.6 s
No. of amnesic rats/No. of rats tested ([2]; 25 mg/kg i.p.): 2/10
Percentage amnesia ([2]; 25 mg/kg i.p.): 20
LD50 [1]: > 600 mg/kg
IC50 (prolyl endopeptidase): 0.15 μg/test tube

CCCCCCCC/C=C\CCCCCCCC(=O)N1CCC[C@H]1C(=O)N1CCCC1 [Compound No. 43, N-(N-oleoyl-L-prolyl)pyrrolidine]
No. of avoidances during learning ([2]; 1 mg/kg i.p.): 3.4
Initial avoidance time ([2]; 1 mg/kg i.p.): 1.9 s
Avoidance time After 24 hrs ([2]; 1 mg/kg i.p.): 240.8 s
No. of amnesic rats/No. of rats tested ([2]; 1 mg/kg i.p.): 2/10
Percentage amnesia ([2]; 1 mg/kg i.p.): 20
IC50 (prolyl endopeptidase): 0.02 μg/test tube

O=C(c1ccccc1)c1ccc(OCCCC(=O)N2CCC[C@H]2C(=O)N2CCCC2)cc1 [compound 31]
IC50 (prolyl endopeptidase): 0.004 μg/test tube

O=C([C@@H]1CCCN1C(=O)CCCOc1ccccc1/C=C/c1ccccc1)N1CCCC1 [Compound No. 35, N-{N-[γ(o-(E)-stilbenyloxy)butyryl]-L-prolyl)pyrrolidine]
IC50 (prolyl endopeptidase): 0.001 μg/test tube

CC(C)[C@H](NC(=O)CCCc1ccccc1)C(=O)N1CCCC1 [Compound No. 1, N-[N-(γ-phenyl)butyryl-L-valyl]pyrrolidine]
No. of avoidances during learning ([2]; 25 mg/kg i.p.): 1.8
Initial avoidance time ([2]; 25 mg/kg i.p.): 2.4 s
Avoidance time After 24 hrs ([2]; 25 mg/kg i.p.): 243.0 s
No. of amnesic rats/No. of rats tested ([2]; 25 mg/kg i.p.): 3/10
Percentage amnesia ([2]; 25 mg/kg i.p.): 30

CC(C)C[C@H](NC(=O)CCCOc1ccc(Cc2ccccc2)cc1)C(=O)N1CCCC1 [compound 12]
IC50 (prolyl endopeptidase): 0.08 μg/test tube

O=C([C@@H]1CCCN1C(=O)CCCOc1cccc(Cc2ccccc2)c1)N1CCCC1 [compound 33]
IC50 (prolyl endopeptidase): 0.0004 μg/test tube

O=C(/C=C/c1ccccc1)c1ccccc1OCCCC(=O)N1CCC[C@H]1C(=O)N1CCCC1 [compound 42]
LD50 [1]: 360 mg/kg
IC50 (prolyl endopeptidase): 0.0008 μg/test tube

O=C([C@@H]1CCCN1C(=O)CCCOc1ccccc1)N1CCCC1 [compound 21]
LD50 [1]: 350 mg/kg
IC50 (prolyl endopeptidase): 0.001 μg/test tube

CCCCCCCC/C=C\CCCCCCCC(=O)N[C@@H](CCCC)C(=O)N1CCCC1 [compound 16]
No. of avoidances during learning ([2]; 20 mg/kg i.p.): 2.1
Initial avoidance time ([2]; 20 mg/kg i.p.): 2.2 s
Avoidance time After 24 hrs ([2]; 20 mg/kg i.p.): 252.0 s
No. of amnesic rats/No. of rats tested ([2]; 20 mg/kg i.p.): 2/10
Percentage amnesia ([2]; 20 mg/kg i.p.): 20
IC50 (prolyl endopeptidase): 0.07 μg/test tube

CC(C)[C@H](NC(=O)CCCOc1ccccc1/C=C/c1ccccc1)C(=O)N1CCCC1 [compound 10]
IC50 (prolyl endopeptidase): 0.02 μg/test tube

CCC(=O)c1ccc(OCCCC(=O)N2CCC[C@H]2C(=O)N2CCCC2)cc1 [compound 23]
IC50 (prolyl endopeptidase): 0.003 μg/test tube

C=CCc1ccccc1OCCCC(=O)N1CCC[C@H]1C(=O)N1CCCC1 [compound 26]
LD50 [1]: 390 mg/kg
IC50 (prolyl endopeptidase): 0.002 μg/test tube

CCCCC/C=C\C/C=C\CCCCCCCC(=O)N1CCC[C@H]1C(=O)N1CCCC1 [compound 46]
IC50 (prolyl endopeptidase): 0.015 μg/test tube

O=C(c1ccccc1)c1ccccc1OCCCC(=O)N1CCC[C@H]1C(=O)N1CCCC1 [compound 32]
IC50 (prolyl endopeptidase): 0.001 μg/test tube

O=C(/C=C/c1ccccc1OCCCC(=O)N1CCC[C@H]1C(=O)N1CCCC1)c1ccccc1 [compound 41]
IC50 (prolyl endopeptidase): 0.001 μg/test tube

CCC(=O)c1ccccc1OCCCC(=O)N1CCC[C@H]1C(=O)N1CCCC1 [compound 24]
IC50 (prolyl endopeptidase): 0.004 μg/test tube

CC(C)[C@H](NC(=O)CCCOc1ccc(Cc2ccccc2)cc1)C(=O)N1CCCC1 [compound 13]
IC50 (prolyl endopeptidase): 0.04 μg/test tube

O=C([C@@H]1CCCN1C(=O)CCCOc1ccc(/C=C/c2ccccc2)cc1)N1CCCC1 [compound 36]
IC50 (prolyl endopeptidase): 0.003 μg/test tube
